This note sets out measurements from ChEMBL document CHEMBL5226390, “Synthesis and Structure-Activity Analysis of Icaritin Derivatives as Potential Tumor Growth Inhibitors of Hepatocellular Carcinoma Cells” (J Nat Prod, 2023).

The structures appear in SMILES notation.

In one series the test system is HepG2. Briefly: Antiproliferative activity against human HepG2 cells assessed as reduction in cell viability incubated for 48 hrs by MTT assay. The format is functional, cell-based. The following applies: HepG2, 48 h. (In general: Formazan colour is commonly taken as a measure of viable cells.)
In the next series the test system is Hep 3B2. Description: Antiproliferative activity against human Hep3B cells assessed as reduction in cell viability incubated for 48 hrs by MTT assay. It is filed as functional, cell-based.
The next series has as its system SMMC-7721. Description: Antiproliferative activity against human SMMC-7721 cells assessed as reduction in cell viability incubated for 48 hrs by MTT assay. The format is functional, cell-based.
A short description of series [1]: Solubility of the compound in water incubated for 24 hrs under stirring conditions by HPLC analysis. The format is physicochemical.
Where [2] appears, read: Homo sapiens, SMMC-7721, 48 h, read-out: IC50.

As a reminder, the IC50 is the concentration that gives 50% inhibition. By solubility is commonly meant the dissolved amount per volume that the medium holds. High values mean much dissolved substance, low ones little dissolved substance. For the compound `COc1ccc(-c2oc3c(CC=C(C)C)c(O)cc(O)c3c(=O)c2O)cc1` [ICARITIN], the figures for the IC50 in the series on HepG2, in the series with Hep 3B2 and in the series with SMMC-7721 (setting [2]) were > 10 µM, 0.9 µM and > 10 µM, respectively. Further, the solubility at 24 h in series [1] was < 10 µg/mL.
As to `CCN(CC)CCOc1cc(O)c2c(=O)c(O[C@H]3O[C@H](C)[C@@H](O)[C@H](O)[C@@H]3O)c(-c3ccc(OC)cc3)oc2c1CC=C(C)C`, the figures for the IC50 with HepG2, in the series with Hep 3B2 and in the series with SMMC-7721 (smmc-7721) were > 10 µM, > 10 µM and “Not Active”, respectively.
Turning to `COc1ccc(-c2oc3c(CC=C(C)C)c(OC[C@H](O)CN(C)C)cc(O)c3c(=O)c2O[C@H]2O[C@H](C)[C@@H](O)[C@H](O)[C@@H]2O)cc1`, the IC50 with HepG2, in the series with Hep 3B2 and with SMMC-7721 (setting [2]) was > 10 µM in each case.
In the case of `CCN(CC)CCCCCCOc1cc(O)c2c(=O)c(O[C@H]3O[C@H](C)[C@@H](O)[C@H](O)[C@@H]3O)c(-c3ccc(OC)cc3)oc2c1CC=C(C)C`, the 50% inhibitory concentration (IC50) came to 2.5 µM with HepG2, 8.9 µM in the series with Hep 3B2 and 6.5 µM in the series with SMMC-7721 (setting [2]).
Consider `COc1ccc(-c2oc3c(CC=C(C)C)c(OCCCN)cc(O)c3c(=O)c2O[C@H]2O[C@H](C)[C@@H](O)[C@H](O)[C@@H]2O)cc1`, for which the values for the IC50 with HepG2, in the series with Hep 3B2 and with SMMC-7721 (smmc-7721) were > 10 µM, > 10 µM and “Not Active”, respectively.
As for `COc1ccc(-c2oc3c(CC=C(C)C)c(OCCCCC(=O)NO)cc(O)c3c(=O)c2O[C@H]2O[C@H](C)[C@@H](O)[C@H](O)[C@@H]2O)cc1`, the half-inhibitory concentration (IC50) in the series on HepG2, in the series on Hep 3B2 and in the series on SMMC-7721 (setting [2]) was > 10 µM throughout.
For `COc1ccc(-c2oc3c(CC=C(C)C)c(OCCN4CCC(C)CC4)cc(O)c3c(=O)c2O[C@H]2O[C@H](C)[C@@H](O)[C@H](O)[C@@H]2O)cc1`, the figures for the IC50 in the series with HepG2, in the series with Hep 3B2 and in the series with SMMC-7721 (smmc-7721) were > 10 µM, > 10 µM and “Not Active”, respectively.
As to `CCCCN(CCCC)CCCOc1cc(O)c2c(=O)c(O[C@H]3O[C@H](C)[C@@H](O)[C@H](O)[C@@H]3O)c(-c3ccc(OC)cc3)oc2c1CC=C(C)C`, the IC50 is > 10 µM with HepG2, 9.3 µM with Hep 3B2 and “Not Active” in the series with SMMC-7721 (smmc-7721).
Consider `COc1ccc(-c2oc3c(CC=C(C)C)c(OCCCCN4CCC(O)CC4)cc(O)c3c(=O)c2O[C@H]2O[C@H](C)[C@@H](O)[C@H](O)[C@@H]2O)cc1`, for which the values for the IC50 in the series on HepG2, with Hep 3B2 and in the series with SMMC-7721 (setting [2]) were 6.5 µM, 5.7 µM and 7.1 µM, respectively.
As for `COc1ccc(-c2oc3c(CC=C(C)C)c(OCCN4CCOCC4)cc(O)c3c(=O)c2O[C@H]2O[C@H](C)[C@@H](O)[C@H](O)[C@@H]2O)cc1`, the IC50 in the series with HepG2 was > 10 µM; in the series with Hep 3B2 it was 6.1 µM; in the series on SMMC-7721 (smmc-7721), “Not Active”.
